Legend:
Hepatitis C virus [1] = experiment: Inhibition of HCV1b con1 NS3/4A protease after 20 mins by FRET-based assay; parameters: species or system Hepacivirus hominis; conditions: Con1, 20 min
Hepatitis C virus [2] = experiment: Antiviral activity against HCV infected in human Huh-luc/neo-ET cells after 72 hrs by replicon assay; format: functional, organism-based, Hepacivirus hominis
Hepatitis C virus [3] = experiment: Selectivity ratio of IC50 for HCV1b con1 wild type NS3/4A protease over IC50 for HCV1b con1 NS3/4A protease D168A mutant; parameters: species or system Hepacivirus hominis
Hepatitis C virus [4] = experiment: Selectivity ratio of IC50 for HCV1b con1 wild type NS3/4A protease over IC50 for HCV1b con1 NS3/4A protease R155K mutant; parameters: species or system Hepacivirus hominis
Hepatitis C virus [5] = experiment: Selectivity ratio of IC50 for HCV1b con1 wild type NS3/4A protease over IC50 for HCV1b con1 NS3/4A protease A156T mutant; parameters: species or system Hepacivirus hominis
Hepatitis C virus [6] = experiment: Selectivity ratio of IC50 for HCV1b con1 wild type NS3/4A protease over IC50 for HCV1b con1 NS3/4A protease T54A mutant; parameters: species or system Hepacivirus hominis
[7] = Inhibition of HCV3a wild type NS3/4A protease after 20 mins by FRET-based assay; parameters: species or system Hepatitis C virus subtype 3a
[8] = Inhibition of HCV2a wild type NS3/4A protease after 20 mins by FRET-based assay; parameters: species or system Hepatitis C virus subtype 2a
[9] = Inhibition of HCV1a wild type NS3/4A protease after 20 mins by FRET-based assay; parameters: species or system Hepatitis C virus subtype 1a
Hepatitis C virus [10] = experiment: Selectivity ratio of IC50 for HCV1b con1 wild type NS3/4A protease over IC50 for HCV1b con1 NS3/4A protease A156V mutant; parameters: species or system Hepacivirus hominis
Hepatitis C virus [11] = experiment: Selectivity ratio of IC50 for HCV1b con1 wild type NS3/4A protease over IC50 for HCV1b con1 NS3/4A protease A156S mutant; parameters: species or system Hepacivirus hominis

## CCC[C@H](NC(=O)[C@@H]1C[C@@H](OC(=O)N2Cc3ccccc3C2)CN1C(=O)[C@@H](NC(=O)OCCN1CCCC1)C(C)(C)C)B1O[C@@H]2C[C@@H]3C[C@@H](C3(C)C)[C@]2(C)O1
Hepatitis C virus [1]
  IC50: 0.005 µM
Hepatitis C virus [2]
  EC50: > 1 µM

## CCC[C@H](NC(=O)[C@@H]1C[C@@H](OC(=O)N2Cc3ccccc3C2)CN1C(=O)[C@@H](NC(=O)OCC(C)C)C(C)(C)C)B1O[C@@H]2C[C@@H]3C[C@@H](C3(C)C)[C@]2(C)O1
Hepatitis C virus [1]
  IC50: 0.0003 µM
Hepatitis C virus [2]
  EC50: 0.054 µM

## CCC[C@H](NC(=O)[C@@H]1C[C@@H](OC(=O)N2Cc3ccccc3C2)CN1C(=O)[C@@H](NS(C)(=O)=O)C(C)(C)C)B1O[C@@H]2C[C@@H]3C[C@@H](C3(C)C)[C@]2(C)O1
Hepatitis C virus [1]
  IC50: 0.011 µM
Hepatitis C virus [2]
  EC50: > 1 µM

## CCC[C@H](NC(=O)[C@@H]1C[C@@H](OC(=O)N2Cc3ccccc3C2)CN1C(=O)[C@@H](NC(=O)OC(C)(C)C)C(C)(C)C)B1O[C@@H]2C[C@@H]3C[C@@H](C3(C)C)[C@]2(C)O1
Hepatitis C virus [1]
  IC50: 0.0008 µM
Hepatitis C virus [2]
  EC50: 0.093 µM

## CCC[C@H](NC(=O)[C@@H]1C[C@@H](OC(=O)N2Cc3ccccc3C2)CN1C(=O)[C@@H](NC(=O)NCCN(CC)CC)C(C)(C)C)B1O[C@@H]2C[C@@H]3C[C@@H](C3(C)C)[C@]2(C)O1
Hepatitis C virus [1]
  IC50: 0.027 µM
Hepatitis C virus [2]
  EC50: > 1 µM

## CC(C)(C)OC(=O)N[C@H](C(=O)N1C[C@H](OC(=O)N2Cc3ccccc3C2)C[C@H]1C(=O)N[C@@H](CC1CCC1)B(O)O)C(C)(C)C
Hepatitis C virus [1]
  IC50: 0.002 µM
Hepatitis C virus [2]
  EC50: 0.171 µM

## CC[C@H](NC(=O)[C@@H]1C[C@@H](OC(=O)N2Cc3ccccc3C2)CN1C(=O)[C@@H](NC(=O)OC(C)(C)C)C1CCCCC1)B(O)O
Hepatitis C virus [3]
  Ratio IC50: 47
Hepatitis C virus [4]
  Ratio IC50: 63
Hepatitis C virus [5]
  Ratio IC50: 40
Hepatitis C virus [6]
  Ratio IC50: 69
Hepatitis C virus [1]
  IC50: 0.001 µM
Hepatitis C virus [2]
  EC50: 0.071 µM
[7]
  IC50: 0.023 µM
[8]
  IC50: 0.006 µM
[9]
  IC50: 0.0009 µM
Hepatitis C virus [10]
  Ratio IC50: 64
Hepatitis C virus [11]
  Ratio IC50: 4

## CCC[C@H](NC(=O)[C@@H]1C[C@@H](OC(=O)N2Cc3ccccc3C2)CN1C(=O)[C@@H](NC(=O)C(O)C(C)(C)C)C(C)(C)C)B1O[C@@H]2C[C@@H]3C[C@@H](C3(C)C)[C@]2(C)O1 (some centres undefined)
Hepatitis C virus [1]
  IC50: 0.003 µM
Hepatitis C virus [2]
  EC50: > 1 µM

## CCC[C@H](NC(=O)[C@@H]1C[C@@H](OC(=O)N2Cc3ccccc3C2)CN1C(=O)[C@@H](NC(=O)OCC(C)(C)C)C(C)(C)C)B1O[C@@H]2C[C@@H]3C[C@@H](C3(C)C)[C@]2(C)O1
Hepatitis C virus [1]
  IC50: 0.0007 µM
Hepatitis C virus [2]
  EC50: 0.041 µM

## CCC[C@H](NC(=O)[C@@H]1C[C@@H](OC(=O)N2Cc3ccccc3C2)CN1C(=O)[C@@H](NC(=O)OCC)C(C)(C)C)B1O[C@@H]2C[C@@H]3C[C@@H](C3(C)C)[C@]2(C)O1
Hepatitis C virus [1]
  IC50: 0.002 µM
Hepatitis C virus [2]
  EC50: 0.23 µM

## CC(C)(C)OC(=O)N[C@H](C(=O)N1C[C@H](OC(=O)N2Cc3ccccc3C2)C[C@H]1C(=O)NC1(B(O)O)CC1)C1CCCCC1
Hepatitis C virus [1]
  IC50: 3.35 µM

## CCC[C@H](NC(=O)[C@@H]1C[C@@H](OC(=O)N2Cc3ccccc3C2)CN1C(=O)[C@@H](NC(=O)OC(C)(C)C)C(C)(C)C)B(O)O
Hepatitis C virus [3]
  Ratio IC50: 61
Hepatitis C virus [4]
  Ratio IC50: 109
Hepatitis C virus [5]
  Ratio IC50: 70
Hepatitis C virus [6]
  Ratio IC50: 121
Hepatitis C virus [1]
  IC50: 0.001 µM
Hepatitis C virus [2]
  EC50: 0.069 µM
[7]
  IC50: 0.061 µM
[8]
  IC50: 0.021 µM
[9]
  IC50: 0.002 µM
Hepatitis C virus [10]
  Ratio IC50: 158
Hepatitis C virus [11]
  Ratio IC50: 5

## CCC[C@H](NC(=O)[C@@H]1C[C@@H](OC(=O)N2Cc3ccccc3C2)CN1C(=O)[C@@H](NC(=O)OC(C)(C)C)C1CCCCC1)B(O)O
Hepatitis C virus [1]
  IC50: 0.002 µM
Hepatitis C virus [2]
  EC50: 0.11 µM

## CCC[C@H](NC(=O)[C@@H]1C[C@@H](OC(=O)N2Cc3ccccc3C2)CN1C(=O)[C@@H](NC(=O)N[C@H](CN(C)S(C)(=O)=O)C(C)(C)C)C(C)(C)C)B(O)O
Hepatitis C virus [3]
  Ratio IC50: <4
Hepatitis C virus [4]
  Ratio IC50: 6
Hepatitis C virus [5]
  Ratio IC50: <4
Hepatitis C virus [6]
  Ratio IC50: 8
Hepatitis C virus [1]
  IC50: 0.0005 µM
Hepatitis C virus [2]
  EC50: 0.025 µM
[7]
  IC50: 0.0009 µM
[8]
  IC50: 0.0006 µM
[9]
  IC50: 0.0003 µM
Hepatitis C virus [10]
  Ratio IC50: 12
Hepatitis C virus [11]
  Ratio IC50: <4

## CCC[C@H](NC(=O)[C@@H]1C[C@@H](OC(=O)N2Cc3ccccc3C2)CN1C(=O)[C@@H](N)C(C)(C)C)B1O[C@@H]2C[C@@H]3C[C@@H](C3(C)C)[C@]2(C)O1
Hepatitis C virus [1]
  IC50: 3.2 µM

## CCC[C@H](NC(=O)[C@@H]1C[C@@H](OC(=O)N2Cc3ccccc3C2)CN1C(=O)[C@@H](NC(=O)OCCF)C(C)(C)C)B1O[C@@H]2C[C@@H]3C[C@@H](C3(C)C)[C@]2(C)O1
Hepatitis C virus [1]
  IC50: 0.002 µM
Hepatitis C virus [2]
  EC50: 0.408 µM

## CC[C@H](NC(=O)[C@@H]1C[C@@H](OC(=O)N2Cc3ccccc3C2)CN1C(=O)[C@@H](NC(=O)OC(C)(C)C)C(C)(C)C)B(O)O
Hepatitis C virus [1]
  IC50: 0.002 µM
Hepatitis C virus [2]
  EC50: 0.098 µM
